The values below are quoted from earlier work in patent US20240216476A1, “COMBINATION OF BITTER RECEPTOR AGONIST AND GUT-SIGNALING COMPOUND” (AARDVARK THERAPEUTICS, INC., priority 2021, published 2024).

Molecules are shown by their SMILES.

This data set has as its system NASH in vivo models. The conditions noted are these: cited from earlier work.
Where [1] appears, read: C57BL/6 male mice fed MCD diet for 4 weeks, 5 mg/kg/day PO for the last 2 weeks.
The mark [2] stands for this setting: Male DIAMOND mice fed WDSW for 24 weeks, 30 mg/kg/day PO QD for the last 8 weeks.
The mark [3] stands for this setting: Male C57BL/6 mice fed fast food diet for 330 days, treatment started after 240 days, dose unknown.
Where [4] appears, read: Male C57BL/6J mice fed high fat diet for 20 weeks, 0.3 mg/kg/day PO for 20 weeks.
Setting [5] is: Male C57BL/6 mice fed CDAHFD diet for 20 weeks, 3 mg/kg PO for 12 weeks.
Where [6] appears, read: Male C57BL/6J mice fed AMLN diet for 50 weeks, 30 mg/kg, PO, QD for 8 weeks.
Where [7] appears, read: C57Bl6/J mice fed MCD diet for 3 weeks, 10 or 30 mg/kg, PO, QD for 3 weeks.

`CC[C@H]1[C@@H](O)[C@@H]2[C@H](CC[C@]3(C)[C@@H]([C@H](C)CCNC(=O)NS(=O)(=O)c4ccc(C(C)(C)C)cc4)CC[C@@H]23)[C@@]2(C)CC[C@@H](O)C[C@@H]12` [EDP-305]: under “Male C57BL/6 mice fed CDAHFD diet for 12 weeks, high dose (30 mg/kg daily PO) from week 6, significant”, the fibrogenic gene expression entry is “decreased fibrogenic”. The “fibrosis progression on histopathology” value (Male C57BL/6 mice fed CDAHFD diet for 12 weeks, high-dose 30 mg/kg daily PO from beginning of week 6) is on record as “halted fibrosis”.

Take `O=C(O)c1cc(F)c2nc(N3[C@@H]4CC[C@H]3C[C@@H](OCc3c(-c5ccccc5OC(F)(F)F)noc3C3CC3)C4)sc2c1` [Tropifexor]: under “AMLN model (C57BL/6J mice on AMLN diet for 30 weeks), 0.03-0.9 mg/kg for the last 4 weeks”, the “inflammation, steatosis, and fibrosis” value is on record as “tropifexor reduced”. For the same compound, the “mRNA levels of fibrogenic markers and hepatic inflammation cell populations” value (AMLN model (C57BL/6J mice), 0.03-0.9 mg/kg for the last 4 weeks) is on record as “dramatically reduced”. Besides, the “ALT/AST levels relative to controls” value (AMLN model (C57BL/6J mice), 0.03-0.9 mg/kg for the last 4 weeks, dose-dependent) is “reduction in ALT/AST”.

`CCCCCCCCCCCCCCCCCCCC(=O)N[C@H]1CC[C@@]2(C)[C@@H](C1)C[C@@H](O)[C@@H]1[C@@H]2C[C@H](O)[C@]2(C)[C@@H]([C@H](C)CCC(=O)O)CC[C@@H]12.CNC[C@H](O)[C@@H](O)[C@H](O)[C@H](O)CO` [Aramchol]: under setting [1], the “ALT, AST, or TG” value is “No effects on ALT,”; the “features of steatohepatitis and fibrosis” value was “Reduced features of”; the “protein expression of COL1A1 in the liver” value is recorded as “decreased protein”.

Take `COc1cccc(C(=O)COc2ccc(CC3SC(=O)[N-]C3=O)cc2)c1.[K+]` (stereo not shown) [Azemiglitazone (MSDC 0602K)]: under setting [2], the “NASH CRN fibrosis score” value is on record as “treated group was 0”; the ballooning result was “significantly decreased”; the “mice progressed from simple steatosis to NASH compared to the control group” value is recorded as “Significantly fewer”; the “serum levels of fasting insulin, and AST and ALT” value is “dramatically reduced”. For the same compound, the “steatosis-activity-fibrosis (SAF) score” value (Male DIAMOND mice fed WDSW for 24 weeks, 30 mg/kg/day PO QD for the last 8 weeks, significantly, reduced to the level of baseline controls) is “lower in the MSDC-”.

With `Cc1cc(F)c(C(=O)Nc2cccc(-c3nncn3C(C)C)n2)cc1-n1cnc(C2CC2)c1` [Selonsertib (GS-4997)], under setting [3], the “liver steatosis, fibrosis, and insulin resistance” value is listed as “Significantly reduced”; the “reduction of liver cholesterol” value is 45%; the “reduction of serum bile acid cholate” value is on record as “cholate (91% reduction)”; the “reduction of serum cholesterol” value was 14%.

Turning to `C[C@H](NC(=O)C(=O)Nc1ccccc1C(C)(C)C)C(=O)N[C@@H](CC(=O)O)C(=O)COc1c(F)c(F)cc(F)c1F` [Emricasan], under setting [4], the “inflammation, ballooning, and fibrosis on histopathology” value is “Improved”; the “serum levels of glucose, HOMA-IR, cholesterol, ALT, and AST” value is “Decreased serum levels”.

As to `CCO[C@@H](Cc1ccc(OCCn2c(C)ccc2-c2ccc(SC)cc2)cc1)C(=O)O` [Saroglitazar], under setting [5], the hepatic steatosis result was “induced reversal of”; the “liver TNFα levels and hepatic fibrogenic and inflammatory gene expression” value is “reduced liver TNFα”; the “reduction of serum ALT” value is listed as “including ALT (60%),”; the “reduction of serum AST” value was “AST (43%), and MCP1”. Under setting [5], the “reduction of serum MCP1” value was “(45%). Liver lipid (TG)”; the vacuolation and ballooning result was “reduced or no”.

For the compound `CSc1ccc(C(=O)/C=C/c2cc(C)c(OC(C)(C)C(=O)O)c(C)c2)cc1` [Elafibranor (GFT505)], under setting [6], the “histopathological scores of hepatic steatosis and inflammation, as well as fibrosis severity” value is “Significantly reduced”; the “liver TG, total cholesterol contents, or plasma levels of ALT, AST, TG or total cholesterol” value was “No effects on liver TG,”.

On to `O=C(O)CCCc1cc2cc(Cl)ccc2n1S(=O)(=O)c1ccc2ncsc2c1` [Lanifibranor (IVA337)], for which, under setting [7], the “induction of profibrotic and fibrotic genes” value is on record as “inhibited the induction”; the “plasma alanine aminotransferase levels” value is “significantly reduced”; the “steatosis and inflammation on histopathology” value is given as “IVA337 prevented”.

Consider `CC[C@H]1[C@@H](O)[C@@H]2[C@H](CC[C@]3(C)[C@@H]([C@H](C)CCC(=O)O)CC[C@@H]23)[C@@]2(C)CC[C@@H](O)C[C@@H]12` [Obeticholic acid (INT-747)], for which, under setting [6], the “histopathological scores of hepatic steatosis and inflammation” value was “Significantly reduced”; the liver weight result was “Significantly reduced”; the “total liver TG and total cholesterol, collagen 1a1, and galectin-3 content” value is recorded as “Significantly reduced”. The plasma total cholesterol entry (Male C57BL/6J mice fed AMLN diet for 50 weeks, 30 mg/kg, PO, QD for 8 weeks, significant) was “reduced plasma total”.
